The data set can be described thus: Human HepG2 cell viability assay in 384 well format. It counts as toxicity, cell-based. As to conditions: HepG2 cells, read-out: Inhibition. Also noted: dose 125 nL, time 70.5 hour; concentration not given beside the values.

As to `COc1ccc(CCC(=O)Nc2ccncc2C)cc1`, the cytotoxicity at 70.5 h is -9.71%. For `Cc1nc(C2CCCN(C(=O)CN3CCCC3=O)C2)sc1C` (stereo not drawn), the cytotoxicity at 70.5 h was -15.5%. For `O=C(CN1CCCNC1=O)N1CCCC(c2nccs2)C1` (stereo not drawn) the value was -8.65%; for `N#Cc1ccc(CNC(=O)NCCC(=O)NC2CCCC2)c(F)c1`, -2.28%. With `CNc1nc(CNC(=O)Nc2ccc(OC)cc2C)cs1` the figure was -7.81%; with `Cc1cnc2c(c1)N(C(=O)c1ccc(=O)n(C)c1)CCO2`, -2.79%; with `O=C(NCCCc1ccc(O)cc1)C1(O)Cc2ccccc2C1`, -8.24%. For `CC(C)COC(C)C(=O)NCc1ccc(Cn2ccnc2)cc1` (stereo not drawn), the cytotoxicity at 70.5 h is -8.31%.

Regarding `CCS(=O)(=O)NCCCNC(=O)N(C)C(C)c1ccccn1` (stereo not drawn), the cytotoxicity at 70.5 h was -5.57%. With `Cc1cccc(C)c1CCNC(=O)N1CCCC2(C1)OCCO2`, the cytotoxicity at 70.5 h was -5.85%.

In the case of `CC(C)COC(C)C(=O)NCc1ccccc1Cn1ccnc1` (stereo not drawn), the cytotoxicity at 70.5 h was -7%.

Turning to `CCC(C)(NCC(=O)Nc1nc(C)cs1)c1nc(C)cs1` (stereo not drawn), the cytotoxicity at 70.5 h was -0.105%.

With `COc1cccc(CNCc2nnc3n2CC(C(F)(F)F)CC3)c1` (stereo not drawn), the cytotoxicity at 70.5 h stood at 6.13%.

As for `O=C(CCn1ccccc1=O)Nc1ccc(I)cc1`, the cytotoxicity at 70.5 h is -10.5%. With `Cc1ccc(NC(=O)CNc2cccc3c2CCCC3)c(Br)c1` the figure was -8.9%; with `O=C(NCc1cc[nH]n1)NCC(c1ccccc1Cl)N1CCCC1` (stereo not drawn), -14.6%.

On to `CNC(=O)c1cccc(NC(=O)CN2CCN(S(C)(=O)=O)CC2)c1`, for which the cytotoxicity at 70.5 h was -11.3%. With `COC(=O)c1cccc(NC(=O)CN2CCN(S(C)(=O)=O)CC2)c1` the figure was -9.51%. With `COc1ccc(NC(=O)CNc2cccc3c2CCCC3)c(OC)c1` the figure was 29.7%; with `CN1CCN(c2ncccc2CNc2ncccc2C#N)CC1`, -10.7%; with `O=C(c1cn(-c2ccccc2Cl)nn1)N1CCCSCC1`, -9.29%. For `CC(C)(CNC(=O)OC(C)(C)C)NC(=O)C1CC(=O)N(C2CC2)C1` (stereo not drawn) the value was 13.1%. Consider `C=C(C)CN(Cc1cccc(O)c1)C1CCC(O)CC1` (stereo not drawn), for which the cytotoxicity at 70.5 h was -6.84%.

Turning to `CCN1CC(C(=O)NC(C)(C)CNC(=O)OC(C)(C)C)CC1=O` (stereo not drawn), the cytotoxicity at 70.5 h is -8.18%. With `N#Cc1cccnc1NCc1cccnc1N1CCC(C(N)=O)CC1` the figure was -9.67%; with `COc1ccccc1OCC(=O)N1CCN(Cc2noc(C)n2)CC1`, -10.6%; with `Cc1cnn(CC2CCCN2Cc2cc(=O)n3cccc(C)c3n2)c1` (stereo not drawn), -7.45%. Take `Cc1cccn2c(=O)cc(CN3CCCCC3Cn3cncn3)nc12` (stereo not drawn): the cytotoxicity at 70.5 h is 7.36%.

`CC(NC1(CNC(=O)C(C)(C)C#N)CCOCC1)c1ccccc1` (stereo not drawn): the cytotoxicity at 70.5 h amounted to 15.5%. Take `Cc1ccc(C2CSCCN2C(=O)c2ccsc2)o1` (stereo not drawn): the cytotoxicity at 70.5 h is -6.25%. Consider `Cc1cc(C)n(-c2cncc(NCCNC(=O)CC3CCCC3)n2)n1`, for which the cytotoxicity at 70.5 h is -4.52%. With `CC1CCCN(C(=O)c2csc(S(N)(=O)=O)c2)CC1` (stereo not drawn) the figure was -1.03%; with `FC(F)(F)C1CCc2nnc(CNCc3ccsc3)n2C1` (stereo not drawn), -2.38%; with `C[S+]([O-])c1nncn1CC(=O)c1ccc(Cl)c(Cl)c1` (stereo not drawn), -3.69%.

Regarding `CCN1CC(C(=O)NC(C)(C)CC(C)(C)C)CC1=O` (stereo not drawn), the cytotoxicity at 70.5 h is -1.71%. For `Cc1nc(CN2CCN(C(=O)COCc3ccccc3)CC2)no1` the value was -9.26%. Regarding `CCN1CCC(CNC(=O)C2(c3cccc(C)c3)CCCCC2)CC1`, the cytotoxicity at 70.5 h stood at 1.1%. Turning to `Cc1cnn(CC(C)NCc2nc(-c3ccsc3)oc2C)c1` (stereo not drawn), the cytotoxicity at 70.5 h is -8.91%. For the compound `CCN1CCC(NC(=O)CN2CC(n3nc(C)cc3C)C2)CC1`, the cytotoxicity at 70.5 h is -6.85%. Regarding `CN(C)CCN1CCN(C(=O)c2ccn(C)c(=O)c2)CC1`, the cytotoxicity at 70.5 h was -11.6%. For `Cc1ccc(C)c(C(=O)N2CCN(C(=O)Cc3ccccn3)CC2)c1` the value was -8.87%; for `Fc1ccc(OCCNCCn2cccn2)cc1`, -9.89%. For `COCc1nc(C(=O)N2CCCC2c2ccc(OC)cc2)cs1` (stereo not drawn) the value was -14.3%; for `Cc1cccc(C(=O)N2CCC(c3n[nH]c(C4CC4)n3)CC2)c1`, 20.7%; for `N#Cc1ccc(OCCNCCn2cccn2)cc1`, -10.2%. With `COCc1nc(C(=O)N2CCCC2c2cccs2)cs1` (stereo not drawn) the figure was -7.86%; with `CC(Cn1cccn1)NCc1csc(-c2ccsc2)n1` (stereo not drawn), -12.1%; with `Cc1nn(C)c(N(C)C)c1CNCc1ccnc(N2CCOCC2)c1`, -5.46%. Consider `CCn1cnnc1CNC(=O)c1cc(Cl)ccc1I`, for which the cytotoxicity at 70.5 h is -10.9%. With `CCn1cnnc1CNC(=O)c1ccc(Cl)cc1I` the figure was -7.84%; with `CC(=O)Nc1nc(C(=O)NCc2ccc(OC(C)C)nc2)cs1`, -5.15%. On to `CC(=O)Nc1nc(C(=O)NCc2ccc(N3CCOCC3)nc2)cs1`, for which the cytotoxicity at 70.5 h was found to be 14.9%. On to `CCn1cnnc1CNC(=O)c1cc(Cl)ccc1F`, for which the cytotoxicity at 70.5 h was -11.5%. For the compound `COc1c(CNCc2ccnc(N3CCOCC3)c2)c(C)nn1C`, the cytotoxicity at 70.5 h is -3.59%. Regarding `O=C(CCNc1ncccn1)N1CCCC(n2cccn2)C1` (stereo not drawn), the cytotoxicity at 70.5 h is -5.02%. For `CC(C)Cc1nc(CN2CCN(CC(O)c3ccccc3)CC2)no1` (stereo not drawn) the value was -3.23%; for `Cn1ccc(C(=O)N2CCN(CC(O)C(C)(C)C)CC2)cc1=O` (stereo not drawn), -5.62%; for `O=C(CCCNc1ncccn1)N1CCCC(n2cncn2)C1` (stereo not drawn), -7.32%. For `CCc1nc(CN2CCCN(C(=O)c3ccco3)CC2)cs1` the value was 16.2%; for `Cc1cc(C)n(CC2CCCN2C(=O)c2ccc(NC3CC3)nc2)n1` (stereo not drawn), 20.6%; for `COc1ccc(NC(=O)NCC(O)c2ccccc2F)c(OC)c1` (stereo not drawn), 19.2%. `O=S(=O)(NCc1ccccc1Cn1cncn1)N1CCCCCC1`: the cytotoxicity at 70.5 h is -7.52%. For `O=S(=O)(NCc1ccccc1Cn1cncn1)N1CCCCC1` the value was -10.7%; for `CCOc1cc(/C=C/c2ncc(C(=O)O)s2)cc(Br)c1OC`, -10.4%; for `CCOc1cc(/C=C/c2ncc(C(=O)O)s2)cc(Br)c1O`, -11.1%. Turning to `CCn1cc(NC(=O)C2CCN(Cc3nc(C(C)C)no3)CC2)cn1`, the cytotoxicity at 70.5 h is -6.8%. With `Cn1cc(C(=O)NCC2CCN(C(=O)NC3CCCCC3)CC2)cn1` the figure was -15.9%. On to `c1ccc(Cc2noc(CN3CCCC(Cn4cncn4)C3)n2)cc1` (stereo not drawn), for which the cytotoxicity at 70.5 h is -14.5%. For `COC(=O)C(c1cc(F)ccc1F)N(C)C(=O)c1cnccn1` (stereo not drawn) the value was 21.6%; for `Cc1nc(CN2CCCN(C(=O)CCc3ccco3)CC2)cs1`, -12.4%. For `Cc1ccc(NC2CCN(C(=O)COC3CCCCC3)CC2)nn1` the value was 20.5%.

With `Cc1ccc(NC2CCN(C(=O)COCC3CC3)CC2)nn1`, the cytotoxicity at 70.5 h was -2.64%. For the compound `Cc1cc(C)n(CC2CCCN2C(=O)c2c[nH]c(=O)c(Cl)c2)n1` (stereo not drawn), the cytotoxicity at 70.5 h was -11.8%. On to `Cc1ncsc1C(=O)N1CCCC(n2cncn2)C1` (stereo not drawn), for which the cytotoxicity at 70.5 h is -13.3%. For `CCn1cc(NC(=O)C2CCN(Cc3noc(C4CC4)n3)CC2)cn1` the value was -8.03%. Take `CC(C)(C)c1nc(CN2CCCC(Cn3cncn3)C2)no1` (stereo not drawn): the cytotoxicity at 70.5 h was -13.7%. With `O=C(c1cncc2ccccc12)N1CCC[C@@H]1CO` the figure was -11.6%; with `COc1c(C2CCCN2CC(=O)NCc2ccccn2)c(C)nn1C` (stereo not drawn), -11.4%. In the case of `COC(=O)C(c1ccccc1)N(C)C(=O)c1ccnc(C)n1` (stereo not drawn), the cytotoxicity at 70.5 h was -8.31%. Consider `O=C(NCCNc1cnccn1)N1CCCC(N2CCCC2)C1` (stereo not drawn), for which the cytotoxicity at 70.5 h came to 3.31%. With `Clc1ccc(OCCCN2CCOC(Cn3cncn3)C2)cc1` (stereo not drawn) the figure was 24.6%. Take `CC(C)Sc1ncccc1C(=O)NCc1ccoc1`: the cytotoxicity at 70.5 h was -9.56%. For `Cc1cc(C)c(CNC(=O)N2CCCC2c2ccc(F)cc2)c(=O)[nH]1` (stereo not drawn), the cytotoxicity at 70.5 h is -6.72%. For the compound `CC(C)Sc1ncccc1C(=O)NCc1cccc(N(C)C)c1`, the cytotoxicity at 70.5 h was 0.244%. As for `N#Cc1cccnc1N1CCCN(C(=O)CCn2cccn2)CC1`, the cytotoxicity at 70.5 h was -9.39%.

On to `O=C1NCC(C(=O)Nc2ncc(Cc3ccccc3F)s2)N1` (stereo not drawn), for which the cytotoxicity at 70.5 h turned out to be 3.26%.

As for `O=C1NCC(C(=O)Nc2ncc(Cc3ccccc3)s2)N1` (stereo not drawn), the cytotoxicity at 70.5 h was found to be 44.7%. With `Cc1cc(NC(=O)CNC2CCCN(c3cccnn3)C2)on1` (stereo not drawn), the cytotoxicity at 70.5 h stood at 43.8%.

As to `O=C1NCC(C(=O)Nc2ncc(Cc3ccc(F)cc3)s2)N1` (stereo not drawn), the cytotoxicity at 70.5 h is -3.14%. With `CC(C)(C)c1n[nH]c(C2CN(C(=O)Cn3ccccc3=O)CCO2)n1` (stereo not drawn) the figure was -5.55%; with `CCCc1n[nH]c(C2CN(C(=O)Cn3ccccc3=O)CCO2)n1` (stereo not drawn), -4.93%; with `CC(c1ccc(F)c(F)c1)N1CCN(Cc2nccn2C)CC1` (stereo not drawn), 47.8%. With `CCOc1nnc(CN2CCOC(CNc3cccnn3)C2)s1` (stereo not drawn) the figure was 15%; with `CC(O)CN1CCN(C(=O)c2cccc(CC#N)c2)CC1` (stereo not drawn), 12.7%; with `CC(O)CN1CCN(C(=O)c2ccc(N(C)C)nc2)CC1` (stereo not drawn), 12%. Take `CN(CCCNC(=O)N1CCCC1c1ccsc1)c1ccccn1` (stereo not drawn): the cytotoxicity at 70.5 h is 16.8%. With `O=C(NCCN1CCOCC1)c1n[nH]c(=O)c2ccccc12` the figure was -10.8%; with `O=C(NCCCN1CCCC1)c1n[nH]c(=O)c2ccccc12`, -9.07%; with `COc1ccc(C2CCCN2C(=O)c2csc(NC(C)=O)n2)cc1` (stereo not drawn), -20.6%. With `CN(Cc1cnn(C)c1)C(=O)NC1CCN(c2ncccn2)CC1` the figure was 12.2%. With `COc1ncccc1NC(=O)C1CCS(=O)(=O)C1` (stereo not drawn) the figure was -15.1%; with `Cc1ncsc1C(=O)NC1CCN(Cc2ccc(C#N)cc2)CC1`, -14.1%; with `CC(=O)Nc1nc(C(=O)N2CCCC2c2ccccc2C)cs1` (stereo not drawn), -19.1%.

These data come from ChEMBL document CHEMBL3507680, “University of Dundee, Gates Library screen for HepG2 cell viability”.
